Laboratory results published in article PMC7059793, “Novel Chemical Scaffolds to Inhibit the Neutral Amino Acid Transporter B^0AT1 (SLC6A19), a Potential Target to Treat Metabolic Diseases” (Frontiers in Pharmacology, 2020).

Key:
Format in all cases: cell-based
B^0AT1 [1] = molecular target: T1, B^0AT1 (Homo sapiens, UniProt Q695T7); test: Membrane potential detecting FLIPR assay in CHO-BC cells; conditions: 30 min pre-incubation, leucine or isoleucine 1.5 mM
T1 construct: expressed in transfected cells
T1 sequence (Q695T7 1-634): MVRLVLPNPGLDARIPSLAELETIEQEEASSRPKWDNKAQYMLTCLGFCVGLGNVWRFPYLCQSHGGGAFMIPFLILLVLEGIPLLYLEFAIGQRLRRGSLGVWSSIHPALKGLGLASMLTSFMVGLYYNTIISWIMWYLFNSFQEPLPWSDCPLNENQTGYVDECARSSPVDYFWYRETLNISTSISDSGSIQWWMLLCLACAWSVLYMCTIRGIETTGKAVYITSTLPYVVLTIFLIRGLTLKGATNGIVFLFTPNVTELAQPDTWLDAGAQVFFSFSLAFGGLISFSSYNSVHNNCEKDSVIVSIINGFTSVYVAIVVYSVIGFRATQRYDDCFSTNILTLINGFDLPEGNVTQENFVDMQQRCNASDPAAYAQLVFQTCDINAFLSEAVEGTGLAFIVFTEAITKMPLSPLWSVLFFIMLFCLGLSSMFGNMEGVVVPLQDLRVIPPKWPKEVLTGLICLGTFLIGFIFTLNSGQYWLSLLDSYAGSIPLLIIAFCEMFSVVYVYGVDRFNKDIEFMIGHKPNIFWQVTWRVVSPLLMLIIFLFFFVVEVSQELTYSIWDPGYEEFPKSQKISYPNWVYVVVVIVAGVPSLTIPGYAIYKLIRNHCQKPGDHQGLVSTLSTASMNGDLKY
T1 sequence (Q9HBJ8 15-222 partner): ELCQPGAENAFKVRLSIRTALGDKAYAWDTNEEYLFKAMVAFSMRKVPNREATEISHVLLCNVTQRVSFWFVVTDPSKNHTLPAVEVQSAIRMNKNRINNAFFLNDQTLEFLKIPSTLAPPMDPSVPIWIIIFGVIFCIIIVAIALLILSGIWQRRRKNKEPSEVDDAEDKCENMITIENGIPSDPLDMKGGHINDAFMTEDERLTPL
Method: CHO-B^0AT1-collectrin Cells (CHO-BC) were generated, cultured, and used as described recently ([Cheng et al., 2017]). Expression levels of B^0AT1 in CHO-BC cells decline over time. As a result, passages <10 were used for experiments. The cells were maintained in Ham’s F-12 glutamax media with 10% (v/v) fetal bovine serum (FBS, Heat inactivated, 10082147 Gibco), 1mM glutamine, 300μg/ml hygromycin B and 275 μg/ml geneticin.
Membrane depolarisation induced by amino acid transport was monitored using a FLIPR® kit (Molecular Devices, R8042 BLUE DYE). Before the assay, CHO-BC cells were seeded out at a density of 60,000 cells/well and maintained in a flat transparent bottom 96-well plate (Corning) overnight. After washing three times with Hank’s balanced salt solution (136.6 mM NaCl, 5.4 mM KCl, 0.44 mM KH2PO4, 2.7mM Na2HPO4, 1.26mM CaCl2, 0.5mM MgCl2, 0.4 mM MgSO4, 10mM HEPES, pH 7.5, supplemented with 5 mM glucose, abbreviated HBSS + G), cells in each well were incubated for 30 min at room temperature in 50 µl of HBSS pH 7.5 containing 5 mM glucose and compounds as indicated, together with 50 µl of dye-loading buffer provided with the kit. Subsequently, the fluorescence signal was detected every 10 s before and after the addition of leucine or isoleucine at a final concentration of 1.5 mM. Fluorescence was detected at room temperature using a PerkinElmer multimode Plate Reader, with an excitation wavelength of 530 nm and emission wavelength of 565 nm.
(§1) Data are shown as mean ± S.D., transport activities indicated as Na^+-dependent net uptake, were calculated by subtracting the uptake activity in the absence of Na^+ from the total uptake rate. The fluorescent signals measured in the FLIPR assay were normalized to baseline readings before the addition of substrates. Data are presented as percentage of baseline at each time point. IC50 was calculated using the equation: y=ymax(1−[x]/[x]+IC50) .

LAT1 = molecular target: T2, LAT1 (Homo sapiens, UniProt Q01650); test: Na+-independent [14C]leucine uptake in 143B cells; conditions: inhibitor at 10 μM and 50 μM
T2 construct: endogenous in cells; host or cells: 143B TK- cells (human osteosarcoma)
Method: (§2) CHO-BC cells with passage numbers from 3 to 10 were used in radio-labelled uptake assays. Before the assay, the cells were seeded out in 35 mm dishes (Corning) and maintained for 48–72 h until reaching 80–90% confluence. To initiate transport, the culture medium was removed and the cells washed three times with HBSS + G. Subsequently, cells were incubated with HBSS + G, radiolabelled substrates (150 μM L-[U-^14C]leucine or 150 μM L-[U-^14C]isoleucine) and inhibitors as indicated in the figures or table in a 37°C water bath for 6 min. To terminate transport, cells were washed three times with ice-cold HBSS pH 7.5. For measuring sodium-independent uptake, NaCl in Hank’s buffer was replaced by NMDG-Cl. Cells were then harvested by homogenizing with 500 µl of 0.1 M HCl. An aliquot of 400 µl was used for scintillation counting and the remainder for protein quantification. To investigate inhibition of ASCT2, uptake of 100 μM [^14C]glutamine was measured in 143B cells in the absence and presence of inhibitor (at 10 μM and 50 μM). To measure inhibition of LAT1, uptake of [^14C]leucine was measured in HBSS + G in which NaCl was replaced by NMDG-Cl in 143B cells in the absence and presence of inhibitor (at 10 μM and 50 μM).
To investigate the specificity of the compounds further, we tested them in human 143B osteosarcoma cells, which we have extensively characterised previously and used for pharmacological analysis ([Broer et al., 2018]). Na^+-dependent glutamine transport in 143B cells is largely mediated by ASCT2 (SLC1A5). Na^+-independent transport of leucine, by contrast, is mediated entirely by LAT1.

B^0AT1 [2] = molecular target: T1, B^0AT1; test: Radioactive flux assay (radiolabelled leucine/isoleucine uptake) in CHO-BC cells; conditions: 150 μM [14C]leucine or [14C]isoleucine, 6 min, 37°C
Method: as §2, §1

T2 sequence (Q01650 whole entry): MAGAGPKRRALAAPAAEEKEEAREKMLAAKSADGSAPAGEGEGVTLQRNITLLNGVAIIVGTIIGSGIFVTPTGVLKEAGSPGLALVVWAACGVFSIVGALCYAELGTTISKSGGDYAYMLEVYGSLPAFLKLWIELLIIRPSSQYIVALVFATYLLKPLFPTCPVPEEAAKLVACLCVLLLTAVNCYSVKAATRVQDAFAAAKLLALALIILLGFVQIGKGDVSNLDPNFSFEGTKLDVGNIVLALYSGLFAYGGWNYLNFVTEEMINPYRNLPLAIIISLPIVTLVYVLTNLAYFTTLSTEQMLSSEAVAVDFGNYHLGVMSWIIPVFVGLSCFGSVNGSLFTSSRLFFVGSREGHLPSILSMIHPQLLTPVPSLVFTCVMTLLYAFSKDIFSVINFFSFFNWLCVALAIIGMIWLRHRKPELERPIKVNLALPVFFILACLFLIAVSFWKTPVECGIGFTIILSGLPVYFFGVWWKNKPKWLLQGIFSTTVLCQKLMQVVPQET
T2 sequence (P08195 102-630 partner): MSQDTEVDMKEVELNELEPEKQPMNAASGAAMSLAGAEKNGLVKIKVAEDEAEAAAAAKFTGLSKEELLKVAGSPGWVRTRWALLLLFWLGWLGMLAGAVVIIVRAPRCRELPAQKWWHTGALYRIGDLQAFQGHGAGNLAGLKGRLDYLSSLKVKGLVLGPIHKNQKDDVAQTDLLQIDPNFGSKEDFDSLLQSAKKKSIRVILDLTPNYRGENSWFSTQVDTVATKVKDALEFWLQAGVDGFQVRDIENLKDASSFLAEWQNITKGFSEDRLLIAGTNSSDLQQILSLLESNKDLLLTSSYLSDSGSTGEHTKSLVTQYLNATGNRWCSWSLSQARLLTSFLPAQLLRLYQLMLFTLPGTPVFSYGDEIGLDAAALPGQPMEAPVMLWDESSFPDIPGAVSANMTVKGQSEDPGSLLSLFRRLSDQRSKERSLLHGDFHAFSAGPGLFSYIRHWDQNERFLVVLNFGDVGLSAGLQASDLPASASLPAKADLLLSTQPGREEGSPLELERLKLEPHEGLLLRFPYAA

| IC50 (B^0AT1 [1]) [µM] | Inhibition of Na+-independent leucine uptake (LAT1) (LAT1) | IC50 (B^0AT1 [2]) [µM] | Structure (SMILES) |
| --- | --- | --- | --- |
| 1.9 ± 0.6 | failed to inhibit | 4.9 ± 0.4 | Cc1cc(C(=O)Nc2ccc(Cl)cc2C(F)(F)F)no1 [CB3] |
| 13.7 ± 0.9 | failed to inhibit | 7.7 ± 1.9 | Cc1cc(OCC(=O)NC(C)C)cc(C)c1Cl [Compound E4] |
| 4.2 ± 0.9 | failed to inhibit | 3.4 ± 0.3 | COc1ccccc1Nc1nc2ccccc2s1 [Compound E18] |
